# According to US20110301142A1, “ANTAGONISTS OF LYSOPHOSPHATIDIC ACID RECEPTORS” (priority 2008, published 2011):
# Columns and labels:
# human LPA3 = target: T1, human LPA3 (Homo sapiens, UniProt Q9UBY5); assay: LPA3 calcium flux assay; type: cell-based; conditions: Human LPA3 expressing CHO cells, stimulated with 10 nM LPA; read-out: HLPA3 Ca Flux IC50
# T1 construct: The full-length cDNA fragment for human LPA3 was obtained by PCR from the vector; expressed in transfected cells; cDNA from the Missouri S&T cDNA Resource Center
# T1 sequence (Q9UBY5 1-353): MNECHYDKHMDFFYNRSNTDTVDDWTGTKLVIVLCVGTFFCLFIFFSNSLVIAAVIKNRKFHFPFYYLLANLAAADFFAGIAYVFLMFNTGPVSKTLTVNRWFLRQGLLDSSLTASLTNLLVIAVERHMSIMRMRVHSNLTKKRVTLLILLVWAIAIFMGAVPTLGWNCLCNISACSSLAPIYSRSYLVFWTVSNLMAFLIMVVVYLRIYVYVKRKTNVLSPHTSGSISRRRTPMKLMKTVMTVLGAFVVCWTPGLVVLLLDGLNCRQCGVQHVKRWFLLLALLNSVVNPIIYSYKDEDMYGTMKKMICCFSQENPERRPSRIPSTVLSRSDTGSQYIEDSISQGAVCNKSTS
# In short: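 Stably transfected CHO cells, serum-starved overnight, loaded with Calcium 4 dye 1 h at 37 °C in HBSS/20 mM Hepes with 0.3% fatty-acid-free HSA. Compounds preincubated 30 min at room temperature, then cells stimulated with 10 nM LPA; intracellular Ca2+ read by fluorescence; IC50 from titration curves.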
# Female CD-1 mice = assay: Bleomycin-induced lung fibrosis model in mice; type: in vivo
# Excerpt: Female CD-1 mice (Harlan, 25-30 g) are housed 4 per cage, given free access to food and water and allowed to acclimate for at least 7 days prior to test initiation. After the habituation phase, mice are lightly anesthetized with isoflurane (5% in 100% O2) and administered with bleomycin sulfate (0.01-5 U/kg, Henry Schein) via intratracheal instillation (Cuzzocrea S et al. Am J Physiol Lung Cell Mol. Physiol. 2007 May; 292(5):L1095-104. Epub 2007 Jan. 12.). Mice are returned to their cages and monitored daily for the duration of the experiment. Test compound or vehicle is delivered po, ip or sc daily. The route and frequency of dosing is based on previously determined pharmacokinetic properties. All animals are sacrificed using inhaled isoflurane 3, 7, 14, 21 or 28 days after bleomycin instillation. Following sacrifice, mice are intubated with a 20 gauge angiocatheter attached to a 1 ml syringe. Lungs are lavaged with saline to obtain bronchoalveolar lavage fluid (BALF) and then removed and fixed in 10% neutral buffered formalin for subsequent histopathological analysis. BALF is centrifuged for 10 min at 800×g to pellet the cells and the cell supernatant removed and frozen at −80° C. for subsequent protein analysis using the DC protein assay kit (Biorad, Hercules, Calif.) and soluble collagen analysis using Sircol (Biocolor Ltd, UK). BALF is analyzed for concentrations of inflammatory, pro-fibrotic and tissue injury biomarkers including transforming growth factor β1, hyaluronic acid, tissue inhibitor of metalloproteinase-1, matrix matelloproteinase-7, connective tissue growth factor and lactate dehydrogenase activity, using commercially available ELISA. The cell pellet is re-suspended in PBS. Total cell counts are then obtained using a Hemavet hematology system (Drew Scientific, Wayne, Pa.) and differential cells counts are determined using Shandon cytospin (Thermo Scientific, Waltham, Mass.). Lung tissue is stained using hematoxylin and eosin (H&E) and trichrome and lung fibrosis.is determined by semiquantitative histopathological scoring (Ashcroft T. et al. J. Clin. Path. 1988; 41; 4, 467-470.) using light microscopy (10× magnification) and quantitative, computer-assisted densitometry of collagen in lung tissue sections using light microscopy. The data are plotted using Graphpad prism and statistical differences between groups determined.
# [1] = chronic setting (14 and 28 day), single bleomycin (1.5 units/kg) instillation
# [2] = chronic setting, repeated bleomycin (3.0-5.0 units/kg/week) instillations
# [3] = chronic setting (14-days only), single bleomycin instillation (3.0 units)
IC50 (human LPA3),Structure (SMILES),efficacy at reducing lung tissue damage and fibrosis compared to pirfenidone (Female CD-1 mice; 14 day mouse bleomycin model),MMP7 concentration in BALF (Female CD-1 mice; acute setting (3 day)),TGFβ1 concentration in BALF (Female CD-1 mice; acute setting (3 day)),hyaluronan concentration in BALF (Female CD-1 mice; acute setting (3 day)),lactate dehydrogenase activity (LDH; tissue injury marker) in BALF (Female CD-1 mice; acute setting (3 day)),tissue inhibitor of metalloproteinase-1 (TIMP-1; pro-fibrotic marker) concentration in BALF (Female CD-1 mice; acute setting (3 day)),total protein in broncheoalveolar lavage fluid (BALF) (Female CD-1 mice; acute setting (3 day)),fibrosis (Female CD-1 mice; [1]),inflammatory cell influx (Female CD-1 mice; [1]),mouse body weight (Female CD-1 mice; [1]),lung fibrosis (Female CD-1 mice; [2]),pulmonary resistance (Female CD-1 mice; [2]),lactate in the BALF (Female CD-1 mice; acute setting (3-day)),fibrosis (Female CD-1 mice; [3]),inflammatory cell influx (Female CD-1 mice; [3])
1 to 50 µM,"Cc1noc(-c2ccc(-c3ccc(CC(=O)O)cc3)cc2)c1NC(=O)O[C@H](C)c1ccccc1Cl [Compound 1-88, (4′-{4-[(R)-1-(2-Chloro-phenyl)-ethoxycarbonylamino]-3-methyl-isoxazol-5-yl}-biphenyl-4-yl)-acetic acid]",superior efficacy to pirfenidone,significantly reduced,significantly reduced,significantly reduced,significantly reduced,significantly reduced,significantly reduced,decreased,decreased,maintained,decreased,decreased,–,–,–
1 to 50 µM,Cc1noc(-c2ccc(-c3ccc(CC(=O)O)cc3)cc2)c1NC(=O)O[C@H](C)c1ccccc1 [Compound 1-115],–,–,–,–,–,reduced,reduced,–,–,–,–,–,reduced,decreased,decreased
